Data reported in patent publication US8415156B2, “Recombinant laminin-521” (Biolamina AB, priority 2010, dated 2013).

Tested on: Akt and MEK1
Test: Western blot of pathway inhibitor treated cells
Format: cell-based, human
Settings: cells collected one hour after plating on LN-521, vs DMSO control
From the text: InSolutionTM LY 294002 (a specific […]), InSolutionTM Wortmannin (a specific PI3K inhibitor), and InSolutionTM 98059 (a specific MEK1/Erk inhibitor) were purchased from Calbiochem. Antibodies to phospho-Akt (#4060), total-Akt (#9272), phospho-Erk (#9101), and total-Erk (#9102) were obtained from Cell Signaling Technology. PathScan Phospho-Akt1 sandwich ELISA kit (#7160), PathScan total Akt1 sandwich ELISA kit (#7170), PathScan Phospho-Akt2 sandwich ELISA kit (#7048), and PathScan total Akt2 sandwich ELISA kit (#7046) were also purchased from Cell Signaling Technology. Antibodies to Calnexin (#ab10286) were obtained from Abcam. Function blocking antibodies to various integrin subunits, mouse isotype antibodies, and α-dystroglycan were purchased from Millipore. Since function blocking antibodies to αV (MAB1980) and α6 (MAB1378) were presented in a solution with sodium azide, before the inhibition of survival experiment all the antibodies to alpha integrin subunits were dialyzed thrice against O3 medium for 2 hours each time. Antibodies to Lutheran receptor and α-fetoprotein, as well as rat isotype control antibodies were obtained from R&D Systems. Antibodies to Oct4, Nanog, SSEA-4, smooth muscle actin and MAP-2 were purchased from Millipore. […] For the densitometry analysis the films were scanned at 2,400 dpi and analyzed by the […]5500 program (1D-Multi Line densitometry mode). […]

In the case of COc1cccc(-c2cc(=O)c3ccccc3o2)c1N [PD 98059], the “efficacy of inhibitor treatment by western blot” value is reported as “confirmed”.
